From US11214803B2, “Modulators of YAP1 expression” (Ionis Pharmaceuticals, Inc., priority 2019, dated 2022)
Strand notation (5' to 3'): a small letter for the sugar, then the base; units joined by * are phosphorothioate-linked, units joined directly phosphodiester-linked; [ ] holds rarer units or linkages, { } end groups; capitals alone tell only the bases. k = constrained ethyl (cEt); [5mC] = 5-methylcytosine; d = 2'-deoxy (DNA)

Tested on: Yap1 mRNA
Experiment: Dose-dependent inhibition of human Yap1 in A-431 cells (Example 8, 10,000 cells per well, RTS4814)
Type: cell-based
Conditions: free uptake, approximately 48 hours, RTS4814; for Yap1 mRNA, % UTC: A-431 cells, 10,000 cells per well; for IC50: A-431 cells, linear regression on log/linear plot
Experimental: Modified oligonucleotides described in the studies above were tested at various doses in A-431 cells. Cultured A-431 cells at a density of 10,000 cells per well were treated using free uptake with modified oligonucleotides diluted to concentrations described in the tables below. After approximately 48 hours, Yap1 mRNA levels were measured as previously described using the Human Yap1 primer-probe set RTS4814. Yap1 mRNA levels were normalized to total RNA content, as measured by RIBOGREEN®. Results are presented in the tables below as percent control of the amount of Yap1 mRNA relative to untreated control cells (% UTC). IC50s were calculated using a linear regression on a log/linear plot of the data in excel.

Row | Substance | Yap1 mRNA, % UTC (31.3 nM) [% UTC] | Yap1 mRNA, % UTC (125.0 nM) [% UTC] | Yap1 mRNA, % UTC (500.0 nM) [% UTC] | Yap1 mRNA, % UTC (2000.00 nM) [% UTC] | IC50 [nM]
1 | 1074563 (DNA kT*kG*kA*dA*dT*dT*d[5mC]*d[5mC]*dA*dA*dT*d[5mC]*dG*kA*kG*kA; antisense) [compound 1074563] | 80 | 31 | 7 | 5 | 100
2 | 1075112 (kA*kT*kA*dT*dA*dG*dG*dA*dA*dT*dA*dT*dG*kG*kG*kT; antisense) [compound 1075112] | 87 | 36 | 13 | 7 | 100
3 | 1074566 (DNA CACTGAATTCCAATCG; 3-10-3 cEt gapmer, chemistry not fully specified) [compound 1074566] | 41 | 12 | 5 | 3 | < 20
4 | 1074627 (DNA k[5mC]*k[5mC]*kT*dG*dT*dT*dA*dT*dG*dA*dA*d[5mC]*d[5mC]*k[5mC]*kT*kT; antisense) [compound 1074627] | 17 | 5 | 3 | 3 | < 20
5 | 1076386 (antisense kA*kG*kT*dT*dA*dT*dA*dA*d[5mC]*dA*dG*dT*dG*kT*kA*kA) [compound 1076386] | 61 | 30 | 11 | 5 | 40
6 | 1076489 (k[5mC]*kA*kA*dA*dA*dT*dA*dG*dG*dT*dG*dA*dG*kT*k[5mC]*kA; antisense) [compound 1076489] | 43 | 13 | 4 | 3 | < 20
7 | 1074597 (DNA kA*kG*kT*dA*dT*dT*d[5mC]*dT*dA*dT*d[5mC]*d[5mC]*dA*kG*kG*kG; antisense) [compound 1074597] | 35 | 15 | 8 | 7 | < 20
8 | 1074411 (kT*kG*kT*dG*dA*dA*dA*dG*dA*dG*dG*dT*d[5mC]*kA*kG*k[5mC]; antisense) [compound 1074411] | 47 | 20 | 8 | 6 | < 20
9 | 1074560 (DNA k[5mC]*k[5mC]*kA*dA*dT*d[5mC]*dG*dA*dG*dA*d[5mC]*dT*dT*kA*kA*kA) [compound 1074560] | 50 | 16 | 6 | 4 | < 20
10 | 1074630 (antisense kA*kG*kA*dG*dA*dT*dT*dT*dT*dA*dT*dG*d[5mC]*k[5mC]*kT*kG) [compound 1074630] | 57 | 23 | 10 | 6 | < 20
11 | 1076427 (k[5mC]*kA*kA*dA*dT*dT*dT*dA*d[5mC]*dT*dG*dA*dT*k[5mC]*kT*k[5mC]; antisense) [compound 1076427] | 75 | 30 | 9 | 4 | 100
12 | 1074443 (kT*k[5mC]*kA*dG*dA*d[5mC]*d[5mC]*dA*dG*dT*dA*dA*dA*kT*k[5mC]*kA; antisense) [compound 1074443] | 69 | 35 | 14 | 8 | 100
13 | 1076067 (kG*k[5mC]*kA*dT*dA*dT*dA*dA*dG*dA*dT*dG*dT*kT*kT*kG; antisense) [compound 1076067] | 45 | 13 | 5 | 4 | < 20
14 | 1075111 (kT*kA*kG*dG*dA*dA*dT*dA*dT*dG*dG*dG*dT*kA*kG*kT; antisense) [compound 1075111] | 42 | 11 | 6 | 5 | < 20
15 | 1074407 (kT*kA*kA*dA*dG*dT*dA*dT*d[5mC]*dT*dT*dG*d[5mC]*kT*kG*kG; antisense) [compound 1074407] | 55 | 27 | 13 | 8 | < 20
16 | 1074245 (antisense kA*kG*kA*dA*dG*dT*dA*dT*d[5mC]*dT*d[5mC]*dT*dG*kA*k[5mC]*k[5mC]) [compound 1074245] | 47 | 21 | 8 | 5 | < 20
17 | 1075146 (kG*kT*kA*dT*dT*dA*dA*dG*dG*dG*dA*dT*dT*kT*kT*k[5mC]; antisense) [compound 1075146] | 67 | 38 | 16 | 8 | 100
18 | 1074626 (DNA k[5mC]*kT*kG*dT*dT*dA*dT*dG*dA*dA*d[5mC]*d[5mC]*d[5mC]*kT*kT*kG) [compound 1074626] | 54 | 18 | 8 | 5 | < 20
19 | 1075048 (antisense kG*kT*kA*dA*dA*dA*dT*dT*dA*dG*dA*d[5mC]*dT*k[5mC]*k[5mC]*k[5mC]) [compound 1075048] | 76 | 42 | 13 | 5 | 100
20 | 1076491 (kA*kG*k[5mC]*d[5mC]*dA*dA*dA*dA*dT*dA*dG*dG*dT*kG*kA*kG; antisense) [compound 1076491] | 81 | 45 | 21 | 10 | 100
21 | 1074762 (kG*k[5mC]*kT*dA*d[5mC]*d[5mC]*d[5mC]*dA*dA*dT*dA*d[5mC]*dA*kA*k[5mC]*k[5mC]; antisense) [compound 1074762] | 74 | 32 | 14 | 8 | 100
22 | 1074726 (antisense kG*kG*kT*dA*dT*dA*dA*d[5mC]*dT*dG*dG*dG*d[5mC]*kA*kA*kA) [compound 1074726] | 26 | 8 | 4 | 3 | < 20
23 | 1074851 (kA*kT*kT*dG*dT*dT*dA*dT*dG*dA*dT*dA*dG*kG*k[5mC]*kA; antisense) [compound 1074851] | 51 | 19 | 9 | 7 | < 20
